In PMC9516332 (Frontiers in Oncology, 2022):
Where two headings read alike, the source gives them in different places.

Assays:
134 cancer cell lines = test: Cell viability assay (ATPlite, 72 hours), IC50 on cancer cell line panel
[1] = target: T1, panel of 255 wild-type kinases (Homo sapiens, UniProt Q9BZL6); test: Kinase panel profiling at 1 µmol/L (MSA or IMAP), percentage inhibition; assay type: biochemical; settings: kinase PKD2; 1 µmol/L single concentration; read-out: %-inhibition at 1 µmol/L, PKD2
T1 sequence (Q9BZL6 1-878): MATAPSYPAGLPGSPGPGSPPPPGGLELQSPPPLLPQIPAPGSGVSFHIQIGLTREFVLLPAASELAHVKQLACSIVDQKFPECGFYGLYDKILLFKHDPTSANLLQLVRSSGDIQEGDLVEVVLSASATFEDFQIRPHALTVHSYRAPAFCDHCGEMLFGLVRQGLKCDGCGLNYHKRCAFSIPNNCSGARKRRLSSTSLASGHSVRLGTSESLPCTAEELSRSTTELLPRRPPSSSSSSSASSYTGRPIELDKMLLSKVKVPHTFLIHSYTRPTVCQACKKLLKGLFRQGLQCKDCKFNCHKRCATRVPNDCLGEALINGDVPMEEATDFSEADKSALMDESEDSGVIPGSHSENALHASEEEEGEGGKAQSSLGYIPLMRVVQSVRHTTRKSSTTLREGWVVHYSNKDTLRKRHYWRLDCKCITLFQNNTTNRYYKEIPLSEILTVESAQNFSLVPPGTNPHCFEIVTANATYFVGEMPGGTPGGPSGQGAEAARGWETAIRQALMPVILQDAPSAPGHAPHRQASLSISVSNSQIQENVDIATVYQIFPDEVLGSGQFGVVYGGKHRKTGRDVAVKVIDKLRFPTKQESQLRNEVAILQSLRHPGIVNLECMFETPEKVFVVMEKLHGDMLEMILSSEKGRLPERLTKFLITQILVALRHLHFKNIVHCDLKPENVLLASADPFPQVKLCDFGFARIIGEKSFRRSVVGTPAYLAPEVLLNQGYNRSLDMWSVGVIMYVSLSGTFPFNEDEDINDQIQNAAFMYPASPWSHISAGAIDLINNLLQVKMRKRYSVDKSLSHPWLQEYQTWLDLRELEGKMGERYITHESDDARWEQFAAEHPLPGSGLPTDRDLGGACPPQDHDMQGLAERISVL

AP-1060 (ETV6-NTRK3) = test: Cell viability assay; settings: read-out: IC50 in cell proliferation assay

`C[C@H]1Oc2cc(cnc2N)-c2c(nn(C)c2C#N)CN(C)C(=O)c2ccc(F)cc21` [lorlatinib] showed an IC50 (134 cancer cell lines; Homo sapiens, MCF7, read-out: IC50 in cell proliferation assay) of 17 µM, an IC50 (134 cancer cell lines; Homo sapiens, MDA-MB-231, read-out: IC50 in cell proliferation assay) of over 31.6 µM and an IC50 (134 cancer cell lines; Homo sapiens, MDA-MB-453, read-out: IC50 in cell proliferation assay) of over 31.6 µM. It also gave an IC50 (134 cancer cell lines; Homo sapiens, MDA-MB-468, read-out: IC50 in cell proliferation assay) of over 31.6 µM, an IC50 (134 cancer cell lines; Homo sapiens, MG-63, read-out: IC50 in cell proliferation assay) of 8.74 µM and an IC50 (134 cancer cell lines; Homo sapiens, MIA PaCa-2, read-out: IC50 in cell proliferation assay) of over 31.6 µM. It also gave an IC50 (134 cancer cell lines; Homo sapiens, MKN-45, read-out: IC50 in cell proliferation assay) of over 31.6 µM, an IC50 (134 cancer cell lines; Homo sapiens, MOLM-13, read-out: IC50 in cell proliferation assay) of 21.1 µM and an IC50 (134 cancer cell lines; Homo sapiens, MOLT-4, read-out: IC50 in cell proliferation assay) of 6.72 µM. For the same compound, the IC50 (134 cancer cell lines; Homo sapiens, MV4-11, read-out: IC50 in cell proliferation assay) was 15.6 µM, the IC50 (134 cancer cell lines; Homo sapiens, MeWo, read-out: IC50 in cell proliferation assay) was over 31.6 µM and the IC50 (134 cancer cell lines; Homo sapiens, NCCIT, read-out: IC50 in cell proliferation assay) was over 31.6 µM. It also gave an IC50 (134 cancer cell lines; Homo sapiens, NCI-H82, read-out: IC50 in cell proliferation assay) of 6.06 µM, an IC50 (134 cancer cell lines; Homo sapiens, NCI-H460, read-out: IC50 in cell proliferation assay) of 18.4 µM and an IC50 (134 cancer cell lines; Homo sapiens, NCI-H661, read-out: IC50 in cell proliferation assay) of 6.73 µM. It also gave an IC50 (134 cancer cell lines; Homo sapiens, NCI-H716, read-out: IC50 in cell proliferation assay) of 9.52 µM, an IC50 (134 cancer cell lines; Homo sapiens, NCI-H1650, read-out: IC50 in cell proliferation assay) of 23.9 µM and an IC50 (134 cancer cell lines; Homo sapiens, NCI-H1975, read-out: IC50 in cell proliferation assay) of 9.89 µM. The IC50 (134 cancer cell lines; Homo sapiens, NCI-H2228, read-out: IC50 in cell proliferation assay) was 0.000918 µM, the IC50 (134 cancer cell lines; Homo sapiens, OVCAR-3, read-out: IC50 in cell proliferation assay) was over 31.6 µM and the IC50 (134 cancer cell lines; Homo sapiens, PFSK-1, read-out: IC50 in cell proliferation assay) was 7.69 µM. For the same compound, the IC50 (134 cancer cell lines; Homo sapiens, RL95-2, read-out: IC50 in cell proliferation assay) was 0.035 µM, the IC50 (134 cancer cell lines; Homo sapiens, RPMI-7951, read-out: IC50 in cell proliferation assay) was 0.818 µM and the IC50 (134 cancer cell lines; Homo sapiens, RS4-11, read-out: IC50 in cell proliferation assay) was 11.2 µM. The IC50 (134 cancer cell lines; Homo sapiens, Rec1, read-out: IC50 in cell proliferation assay) was 8.26 µM, the IC50 (134 cancer cell lines; Homo sapiens, SHP77, read-out: IC50 in cell proliferation assay) was over 31.6 µM and the IC50 (134 cancer cell lines; Homo sapiens, SK-BR-3, read-out: IC50 in cell proliferation assay) was over 31.6 µM. The IC50 (134 cancer cell lines; Homo sapiens, SK-N-AS, read-out: IC50 in cell proliferation assay) was over 31.6 µM, the IC50 (134 cancer cell lines; Homo sapiens, SK-N-FI, read-out: IC50 in cell proliferation assay) was 21.5 µM and the IC50 (134 cancer cell lines; Homo sapiens, SK-N-MC, read-out: IC50 in cell proliferation assay) was 6.17 µM. It also gave an IC50 (134 cancer cell lines; Homo sapiens, SK-N-SH, read-out: IC50 in cell proliferation assay) of 5.69 µM, an IC50 (134 cancer cell lines; Homo sapiens, SNU-5, read-out: IC50 in cell proliferation assay) of over 31.6 µM and an IC50 (134 cancer cell lines; Homo sapiens, SNU-16, read-out: IC50 in cell proliferation assay) of 31.5 µM. For the same compound, the IC50 (134 cancer cell lines; Homo sapiens, SNU-C2B, read-out: IC50 in cell proliferation assay) was over 31.6 µM, the IC50 (134 cancer cell lines; Homo sapiens, SU-DHL-1, read-out: IC50 in cell proliferation assay) was 0.008 µM and the IC50 (134 cancer cell lines; Homo sapiens, SU-DHL-6, read-out: IC50 in cell proliferation assay) was 24.1 µM. It also gave an IC50 (134 cancer cell lines; Homo sapiens, SUP-T1, read-out: IC50 in cell proliferation assay) of 23.2 µM, an IC50 (134 cancer cell lines; Homo sapiens, SW48, read-out: IC50 in cell proliferation assay) of 8.62 µM and an IC50 (134 cancer cell lines; Homo sapiens, SW480, read-out: IC50 in cell proliferation assay) of over 31.6 µM. The IC50 (134 cancer cell lines; Homo sapiens, SW626, read-out: IC50 in cell proliferation assay) was 8.56 µM, the IC50 (134 cancer cell lines; Homo sapiens, SW780, read-out: IC50 in cell proliferation assay) was 16 µM and the IC50 (134 cancer cell lines; Homo sapiens, SW837, read-out: IC50 in cell proliferation assay) was over 31.6 µM. The IC50 (134 cancer cell lines; Homo sapiens, SW872, read-out: IC50 in cell proliferation assay) was 6.65 µM, the IC50 (134 cancer cell lines; Homo sapiens, SW900, read-out: IC50 in cell proliferation assay) was 15.1 µM and the IC50 (134 cancer cell lines; Homo sapiens, SW948, read-out: IC50 in cell proliferation assay) was 17 µM. It also gave an IC50 (134 cancer cell lines; Homo sapiens, SW982, read-out: IC50 in cell proliferation assay) of 0.052 µM, an IC50 (134 cancer cell lines; Homo sapiens, SW-620, read-out: IC50 in cell proliferation assay) of 17 µM and an IC50 (134 cancer cell lines; Homo sapiens, T98G, read-out: IC50 in cell proliferation assay) of 11.4 µM. The IC50 (134 cancer cell lines; Homo sapiens, TCC-SUP, read-out: IC50 in cell proliferation assay) was over 31.6 µM, the IC50 (134 cancer cell lines; Homo sapiens, THP-1, read-out: IC50 in cell proliferation assay) was over 31.6 µM and the IC50 (134 cancer cell lines; Homo sapiens, U2OS, read-out: IC50 in cell proliferation assay) was 8.64 µM. For the same compound, the IC50 (134 cancer cell lines; Homo sapiens, U-87 MG, read-out: IC50 in cell proliferation assay) was over 31.6 µM, the IC50 (134 cancer cell lines; Homo sapiens, U-118-MG, read-out: IC50 in cell proliferation assay) was over 31.6 µM and the IC50 (134 cancer cell lines; Homo sapiens, UMUC3, read-out: IC50 in cell proliferation assay) was over 31.6 µM. The IC50 (134 cancer cell lines; Hs766T, read-out: IC50 in cell proliferation assay) was over 31.6 µM, the IC50 (134 cancer cell lines; L-82, read-out: IC50 in cell proliferation assay) was 0.00122 µM and the IC50 (134 cancer cell lines; Rh30, read-out: IC50 in cell proliferation assay) was 9.22 µM. The inhibition at 1 µM [1] was -11% and the IC50 (AP-1060 (ETV6-NTRK3)) was 10.7 µM.
